This is an account of results in patent US9474790B2, “Stable, protracted GLP-1/glucagon receptor co-agonists for medical use” (Novo Nordisk A/S, priority 2013, dated 2016).

Numbered stars: 1 amine (or outer) side, 2 acyl side, 3 side chain; on linkers, the order of the positions; unused ones are H or OH. Square brackets hold non-standard residues; d marks the D form. Side chains are listed from the residue outwards. Peptide text beside a SMILES is read from it. * marks the point of attachment. C18 diacid = O=C(O)CCCCCCCCCCCCCCCCC(=O)*; γGlu = O=C(O)[C@H](CCC(=O)[*:2])N[*:1]; Ac4c = NC1(C(=O)O)CCC1; AEEA = NCCOCCOCC(=O)O; Aib = CC(C)(N)C(=O)O

A short description of series [1]: Thioflavin T (ThT) fibrillation assay for physical stability. It counts as physicochemical. Particulars: 250 μM in 10 mM HEPES buffer, pH 7.5, 37° C., shaking 960 rpm. An outline of the steps:
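Peptide at 250 μM in 10 mM HEPES pH 7.5 with 1 μM ThT, at 37° C with 960 rpm orbital shaking. Fluorescence (ex 444/em 485 nm) read every 20 min after 10 min pre-incubation; sigmoidal fit gives lag time (t0−2τ) and kapp (1/τ). Recovery is RP-HPLC peptide in the centrifuged, 0.22 μm-filtered supernatant as % of initial.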

For another series, the target named is T1, human GLP-1 receptor (Homo sapiens, UniProt P43220).
T1 construct: expressed in transfected cells; host or cells: BHK cells (parent BHKTS13), clone FCW467-12A/KZ10-1, with CRE luciferase
T1 sequence (P43220 24-463): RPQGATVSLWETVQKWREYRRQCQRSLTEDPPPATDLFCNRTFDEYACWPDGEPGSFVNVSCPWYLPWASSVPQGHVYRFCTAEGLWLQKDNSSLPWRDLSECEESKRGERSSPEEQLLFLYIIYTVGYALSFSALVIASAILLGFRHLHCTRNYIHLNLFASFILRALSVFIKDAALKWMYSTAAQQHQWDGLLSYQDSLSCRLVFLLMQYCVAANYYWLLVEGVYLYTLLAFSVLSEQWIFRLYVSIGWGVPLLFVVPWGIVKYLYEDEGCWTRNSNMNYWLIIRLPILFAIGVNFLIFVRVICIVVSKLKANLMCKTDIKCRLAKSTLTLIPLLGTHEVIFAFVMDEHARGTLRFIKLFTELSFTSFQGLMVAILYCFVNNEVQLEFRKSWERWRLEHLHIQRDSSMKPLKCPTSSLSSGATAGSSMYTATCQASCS
Briefly: GLP-1 receptor potency, CRE luciferase reporter gene assay in BHK cells. Particulars: BHK cells expressing human GLP-1 receptor, read-out: EC50 GLP-1R. It counts as cell-based. An outline of the steps:
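BHK cells stably expressing human GLP-1 receptor with CRE-luciferase reporter, 5×10EE3 cells/well in phenol red-free DMEM with 10 mM Hepes, 2% ovalbumin, 0.2% Pluronic F-68. Compounds at final 1×10EE-6 to 1×10EE-13 M, 3 h at 37° C; steadylite luminescence; EC50 by four-parameter fit, in pM.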

In series [1], `CC(C)C[C@H](NC(=O)[C@H](Cc1ccc(O)cc1)NC(=O)[C@H](CCCCN)NC(=O)[C@H](CO)NC(=O)[C@H](CC(C)C)NC(=O)[C@H](CC(=O)O)NC(=O)[C@H](CO)NC(=O)[C@@H](NC(=O)[C@H](Cc1ccccc1)NC(=O)[C@@H](NC(=O)CNC(=O)[C@H](CCC(N)=O)NC(=O)C(C)(C)NC(=O)[C@@H](N)Cc1c[nH]cn1)[C@@H](C)O)[C@@H](C)O)C(=O)N[C@@H](CC(=O)O)C(=O)N[C@@H](C)C(=O)N[C@@H](CCCNC(=N)N)C(=O)N[C@@H](CCCNC(=N)N)C(=O)N[C@@H](C)C(=O)N[C@@H](CCCNC(=N)N)C(=O)N[C@@H](CCC(=O)O)C(=O)N[C@@H](Cc1ccccc1)C(=O)N[C@H](C(=O)N[C@@H](CCC(N)=O)C(=O)N[C@@H](Cc1c[nH]c2ccccc12)C(=O)N[C@@H](CC(C)C)C(=O)N[C@@H](CC(C)C)C(=O)N[C@@H](CC(N)=O)C(=O)N[C@@H](CCCCNC(=O)CC[C@H](NC(=O)CC[C@H](NC(=O)COCCOCCNC(=O)CC[C@H](NC(=O)CCCCCCCCCCCCCCCCC(=O)O)C(=O)O)C(=O)O)C(=O)O)C(N)=O)C(C)C` [Example 39, N^ε29-[(4S)-4-carboxy-4-[[(4S)-4-carboxy-4-[[2-[2-[2-[[(4S)-4-carboxy-4-(17-carboxyheptadecanoylamino)butanoyl]amino]ethoxy]ethoxy]acetyl]amino]butanoyl]amino]butanoyl]-[Aib2,Leu10,Ala16,Arg20,Glu21,Leu27,Lys29]-Glucagon amide] (H-H[Aib]QGTFTSDLSKYLDARRAREFVQWLLNK([γGlu-γGlu-AEEA-γGlu-C18 diacid])-NH2; N-terminus assumed) returned a THT assay Lag time (Ex. 76) of 45 h. Moreover, the EC50 (commonly the concentration that produces a half-maximal response) at human GLP-1 receptor was 4 pM.

With `CC(C)C[C@H](NC(=O)[C@H](Cc1ccc(O)cc1)NC(=O)[C@H](CCCCN)NC(=O)[C@H](CO)NC(=O)[C@H](CC(C)C)NC(=O)[C@H](CC(=O)O)NC(=O)[C@H](CO)NC(=O)[C@@H](NC(=O)[C@H](Cc1ccccc1)NC(=O)[C@@H](NC(=O)CNC(=O)[C@H](CCC(N)=O)NC(=O)C1(NC(=O)[C@@H](N)Cc2c[nH]cn2)CCC1)[C@@H](C)O)[C@@H](C)O)C(=O)N[C@@H](CCC(=O)O)C(=O)N[C@@H](CO)C(=O)N[C@@H](CCCCN)C(=O)N[C@@H](CCCNC(=N)N)C(=O)N[C@@H](C)C(=O)N[C@@H](CCCNC(=N)N)C(=O)N[C@@H](CCC(=O)O)C(=O)N[C@@H](Cc1ccccc1)C(=O)N[C@H](C(=O)N[C@@H](CCC(N)=O)C(=O)N[C@@H](Cc1c[nH]c2ccccc12)C(=O)N[C@@H](CC(C)C)C(=O)N[C@@H](CC(C)C)C(=O)N[C@@H](CCCCNC(=O)CC[C@H](NC(=O)CC[C@H](NC(=O)[C@H](CO)NC(=O)[C@H](CCC(=O)O)NC(=O)[C@H](CO)NC(=O)CC[C@H](NC(=O)CC[C@H](NC(=O)CCCCCCCCCCCCCCCCC(=O)O)C(=O)O)C(=O)O)C(=O)O)C(=O)O)C(=O)N[C@H](C(N)=O)[C@@H](C)O)C(C)C` [Example 68, N^ε28-[(4S)-4-carboxy-4-[[(4S)-4-carboxy-4-[[(2S)-2-[[(2S)-4-carboxy-2-[[(2S)-2-[[(4S)-4-carboxy-4-[[(4S)-4-carboxy-4-(17-carboxyheptadecanoylamino)butanoyl]amino]butanoyl]amino]-3-hydroxypropanoyl]amino]butanoyl]amino]-3-hydroxypropanoyl]amino]butanoyl]amino]butanoyl]-[Acb2,Leu10,Glu15,Lys17,Arg20,Glu21,Leu27,Lys28]-Glucagon amide] (H-H[Ac4c]QGTFTSDLSKYLESKRAREFVQWLLK([γGlu-γGlu-Ser-Glu-Ser-γGlu-γGlu-C18 diacid])T-NH2; N-terminus assumed), the THT assay Lag time (Ex. 76) in series [1] was 45 h. The EC50 on human GLP-1 receptor turned out to be 7 pM.

Consider `CC(C)C[C@H](NC(=O)[C@H](Cc1ccc(O)cc1)NC(=O)[C@H](CCCCN)NC(=O)[C@H](CO)NC(=O)[C@H](CC(C)C)NC(=O)[C@H](CC(=O)O)NC(=O)[C@H](CO)NC(=O)[C@@H](NC(=O)[C@H](Cc1ccccc1)NC(=O)[C@@H](NC(=O)CNC(=O)[C@H](CCC(N)=O)NC(=O)C(C)(C)NC(=O)[C@@H](N)Cc1c[nH]cn1)[C@@H](C)O)[C@@H](C)O)C(=O)N[C@@H](CCC(=O)O)C(=O)N[C@@H](CO)C(=O)N[C@@H](CCCCN)C(=O)N[C@@H](CCCNC(=N)N)C(=O)N[C@@H](C)C(=O)N[C@@H](CCCNC(=N)N)C(=O)N[C@@H](CO)C(=O)N[C@@H](Cc1ccccc1)C(=O)N[C@H](C(=O)N[C@@H](CCC(N)=O)C(=O)N[C@@H](Cc1c[nH]c2ccccc12)C(=O)N[C@@H](CC(C)C)C(=O)N[C@@H](CC(C)C)C(=O)N[C@@H](CCCCNC(=O)CC[C@H](NC(=O)CC[C@H](NC(=O)[C@H](CO)NC(=O)[C@H](CCC(=O)O)NC(=O)[C@H](CO)NC(=O)CC[C@H](NC(=O)CC[C@H](NC(=O)CCCCCCCCCCCCCCCCC(=O)O)C(=O)O)C(=O)O)C(=O)O)C(=O)O)C(=O)N[C@H](C(N)=O)[C@@H](C)O)C(C)C` [Example 69, N^ε28-[(4S)-4-carboxy-4-[[(4S)-4-carboxy-4-[[(2S)-2-[[(2S)-4-carboxy-2-[[(2S)-2-[[(4S)-4-carboxy-4-[[(4S)-4-carboxy-4-(17-carboxyheptadecanoylamino)butanoyl]amino]butanoyl]amino]-3-hydroxypropanoyl]amino]butanoyl]amino]-3-hydroxypropanoyl]amino]butanoyl]amino]butanoyl]-[Aib2,Leu10,Glu15,Lys17,Arg20,Ser21,Leu27,Lys28]-Glucagon amide] (H-H[Aib]QGTFTSDLSKYLESKRARSFVQWLLK([γGlu-γGlu-Ser-Glu-Ser-γGlu-γGlu-C18 diacid])T-NH2; N-terminus assumed), for which the THT assay Lag time (Ex. 76) in series [1] came to 45 h. Further, the EC50 on human GLP-1 receptor is 7 pM.

On to `CC(C)C[C@H](NC(=O)[C@H](Cc1ccc(O)cc1)NC(=O)[C@H](CCCCN)NC(=O)[C@H](CO)NC(=O)[C@H](CC(C)C)NC(=O)[C@H](CC(=O)O)NC(=O)[C@H](CO)NC(=O)[C@@H](NC(=O)[C@H](Cc1ccccc1)NC(=O)[C@@H](NC(=O)CNC(=O)[C@H](CCC(N)=O)NC(=O)C1(NC(=O)[C@@H](N)Cc2c[nH]cn2)CCC1)[C@@H](C)O)[C@@H](C)O)C(=O)N[C@@H](CCC(=O)O)C(=O)N[C@@H](CO)C(=O)N[C@@H](CCCNC(=N)N)C(=O)N[C@@H](CCCNC(=N)N)C(=O)N[C@@H](C)C(=O)N[C@@H](CCCNC(=N)N)C(=O)N[C@@H](CCC(=O)O)C(=O)N[C@@H](Cc1ccccc1)C(=O)N[C@H](C(=O)N[C@@H](CCC(N)=O)C(=O)N[C@@H](Cc1c[nH]c2ccccc12)C(=O)N[C@@H](CC(C)C)C(=O)N[C@@H](CC(C)C)C(=O)N[C@@H](CCCCNC(=O)CC[C@H](NC(=O)CC[C@H](NC(=O)COCCOCCNC(=O)COCCOCCNC(=O)CC[C@H](NC(=O)CCCCCCCCCCCCCCCCC(=O)O)C(=O)O)C(=O)O)C(=O)O)C(=O)N[C@H](C(N)=O)[C@@H](C)O)C(C)C` [Example 44, N^ε28-[(4S)-4-carboxy-4-[[(4S)-4-carboxy-4-[[2-[2-[2-[[2-[2-[2-[[(4S)-4-carboxy-4-(17-carboxyheptadecanoylamino)butanoyl]amino]ethoxy]ethoxy]acetyl]amino]ethoxy]ethoxy]acetyl]amino]butanoyl]amino]butanoyl]-[Acb2,Leu10,Glu15,Arg20,Glu21,Leu27,Lys28]-Glucagon amide] (H-H[Ac4c]QGTFTSDLSKYLESRRAREFVQWLLK([γGlu-γGlu-AEEA-AEEA-γGlu-C18 diacid])T-NH2; N-terminus assumed), for which, in series [1], the THT assay Lag time (Ex. 76) was 45 h. Further, the EC50 on human GLP-1 receptor amounted to 3 pM.

The compound `CC(C)C[C@H](NC(=O)[C@H](Cc1ccc(O)cc1)NC(=O)[C@H](CCCCN)NC(=O)[C@H](CO)NC(=O)[C@H](CC(C)C)NC(=O)[C@H](CC(=O)O)NC(=O)[C@H](CO)NC(=O)[C@@H](NC(=O)[C@H](Cc1ccccc1)NC(=O)[C@@H](NC(=O)CNC(=O)[C@H](CCC(N)=O)NC(=O)C(C)(C)NC(=O)[C@@H](N)Cc1c[nH]cn1)[C@@H](C)O)[C@@H](C)O)C(=O)N[C@@H](CC(=O)O)C(=O)N[C@@H](C)C(=O)N[C@@H](CCCNC(=N)N)C(=O)N[C@@H](CCCNC(=N)N)C(=O)N[C@@H](C)C(=O)N[C@@H](CCCNC(=N)N)C(=O)N[C@@H](CCC(=O)O)C(=O)N[C@@H](Cc1ccccc1)C(=O)N[C@H](C(=O)N[C@@H](CCC(N)=O)C(=O)N[C@@H](Cc1c[nH]c2ccccc12)C(=O)N[C@@H](CC(C)C)C(=O)N[C@@H](CC(C)C)C(=O)N[C@@H](CCCCNC(=O)CC[C@H](NC(=O)CC[C@H](NC(=O)COCCOCCNC(=O)COCCOCCNC(=O)CC[C@H](NC(=O)CCCCCCCCCCCCCCCCC(=O)O)C(=O)O)C(=O)O)C(=O)O)C(=O)N[C@H](C(N)=O)[C@@H](C)O)C(C)C` [Example 43, N^ε28-[(4S)-4-carboxy-4-[[(4S)-4-carboxy-4-[[2-[2-[2-[[2-[2-[2-[[(4S)-4-carboxy-4-(17-carboxyheptadecanoylamino)butanoyl]amino]ethoxy]ethoxy]acetyl]amino]ethoxy]ethoxy]acetyl]amino]butanoyl]amino]butanoyl]-[Aib2,Leu10,Ala16,Arg20,Glu21,Leu27,Lys28]-Glucagon amide] (H-H[Aib]QGTFTSDLSKYLDARRAREFVQWLLK([γGlu-γGlu-AEEA-AEEA-γGlu-C18 diacid])T-NH2; N-terminus assumed) displayed a THT assay Lag time (Ex. 76) in series [1] of 45 h. Moreover, the EC50 at human GLP-1 receptor is 5 pM.
